In test [1] the target is Protein farnesyltransferase (Mus musculus) (UniProt Q61239+Q8K2I1). In words: (§1) Inhibition of Ras-processing in H-Ras transformed NIH3T3 fibroblasts. The class given is functional, cell-based.
Test [2] has as its target T1, Protein farnesyltransferase (Homo sapiens, UniProt P49354+P49356). In words: Activity against Farnesyltransferase. It is filed as protein-complex assay.
The target of test [3] is Protein farnesyltransferase (Bos taurus, UniProt P29702+P49355). As to the kind of experiment: Activity against bovine Farnesyltransferase. It is filed as protein-complex assay.
Test [4] in a line: (§2) Activity against Geranylgeranyl transferase type I.
In test [5] the target is T1, Protein farnesyltransferase. In words: Activity against Ras Farnesyltransferase from Burkett's lymphoma. The class given is protein-complex assay.
Test [6] has the same target. In words: Activity against Ras Farnesyltransferase from human colon carcinoma. The class given is protein-complex assay.
Test [7] has as its system NIH3T3. In words: Activity against H-Ras transformed NIH3T3 fibroblasts in a clonogenic assay. The class given is functional, cell-based. The conditions noted are these: Mus musculus.
The species named for the next test is Mus musculus. As to the kind of experiment: Percent increase in life span of NIH3T3 cell tumor-bearing nude mice. It is filed as functional.
The target in test [8] is Protein farnesyltransferase (Mus musculus, UniProt Q61239+Q8K2I1). Described as §1. It is filed as functional, cell-based.
The test system of the next test is Homo sapiens. In words: Inhibition of EJ-1 human bladder carcinoma growth at 100 mg/kg. It is filed as functional.
Test [9] concerns the target T1, Protein farnesyltransferase. In words: Inhibition of H-Ras Farnesyltransferase. It is filed as protein-complex assay.
In test [10] the test system is NIH3T3. In words: Inhibition of Ras processing in v-Ras-transformed NIH 3T3 cell growth in soft agar at 50 uM. It is filed as functional, cell-based. The following applies: Mus musculus.
Test [11] has as its target T1, Protein farnesyltransferase. In words: Activity against human Farnesyltransferase. It is filed as protein-complex assay.
The next test deals with Tumor Cell line. As to the kind of experiment: Inhibition of colony formation in soft agar of 14 human tumor cell lines. The class given is functional, cell-based.
Test [12] is described as follows: Inhibition of K-Ras-transformed fibrosarcoma growth. The class given is functional.
Test [13] deals with T2, Protein farnesyltransferase (Rattus norvegicus, UniProt Q02293+Q04631). As to the kind of experiment: Activity against rat Farnesyltransferase. The class given is protein-complex assay.
The target of test [14] is Geranylgeranyl transferase type I (Homo sapiens, UniProt P49354+P53609). Described as §2. The class given is protein-complex assay.
Test [15] addresses T1, Protein farnesyltransferase. As to the kind of experiment: Inhibition of Ras processing in v-Ras-transformed cells. The class given is functional, cell-based.
For test [16] the target is unchanged. As to the kind of experiment: Concentration inhibiting farnesylation of p21ras in Ras-transformed cells. It is filed as functional, cell-based.
Test [17] concerns the target T2, Protein farnesyltransferase. In words: Activity against rat brain Farnesyltransferase.
For test [18], the target named is Protein farnesyltransferase (Sus scrofa). In words: Activity against pig Farnesyltransferase.

Molecules are shown by their SMILES. Non-standard residues stand in square brackets, D forms with d. Residues, ends and D or L forms follow the SMILES beside them. *: point of attachment. Cbz = O=C(OCc1ccccc1)*; Bn = c1ccc(C*)cc1 A value given as a limit tells only on which side of the number the result lay.

As to `O=C(N[C@H](Cc1c[nH]cn1)C(=O)N[C@@H](Cc1ccc(OCc2ccccc2)cc1)C(=O)NCCOCc1ccccc1)OCc1ccccc1`, in test [1], the Concentration amounted to 5 µM. As a reminder, the IC50 is the point on the concentration scale where inhibition reaches its midpoint. Read a high IC50 as weaker potency in that assay. In [2], `C[C@@H](NC(=O)[C@H](Cc1c[nH]c2ccccc12)NC(=O)[C@H](COCc1ccccc1)NC(=O)[C@H](Cc1ccc(OCc2ccccc2)cc1)NC(=O)[C@@H](Cc1c[nH]cn1)NC(=O)OCc1ccccc1)C(N)=O` (Cbz-[dH]Y(Bn)S(Bn)W[dA]-NH2) returned a half-maximal inhibitory concentration (IC50) of 0.02 µM. Moreover, the Concentration in test [1] was found to be 25 µM. Regarding `CC[C@H](C)[C@H](NC[C@@H](NC[C@@H](N)CS)[C@@H](C)CC)C(=O)N[C@@H](CCO)C(=O)O`, the values for the 50% inhibitory concentration (IC50) in [3] and in test [4] were 0.018 µM and above 10 µM, respectively. With `CSC[C@H](NC(=O)c1cccc(CNC(=O)[C@@H](N)CS)c1)C(=O)O`, the figures for the IC50 in test [5] and in [6] were 0.12 µM and 0.06 µM, respectively. For orientation: ILS means the gain in survival time of treated over control animals, in per cent. With `O=C(CN(Cc1ccc(OCc2ccccc2)cc1)C(=O)[C@H](Cc1c[nH]cn1)NC(=O)OCc1ccccc1)NCCc1ccccc1`, the half-inhibitory concentration (IC50) is 0.17 µM in test [2] and 4.4 µM with NIH3T3 [7]. The Concentration in test [1] was found to be 0.1 µM. In the test listed under Mus musculus, this compound gave an ILS of 35%.

`C[C@@H](NC(=O)[C@H](Cc1c[nH]c2ccccc12)NC(=O)[C@H](COCc1ccccc1)NC(=O)[C@H](Cc1ccc(OCc2ccccc2)cc1)NC(=O)[C@H](Cc1c[nH]cn1)NC(=O)OCc1ccccc1)C(N)=O`: in test [8], the IC50 was 0.42 µM. As usually defined, the inhibition in vivo is the change of the read-out against control, counted positive when it falls. A lower inhibition in vivo goes with a response near the control. Compound `CSCC[C@H](NC(=O)[C@H](/C=C\[C@@H](/C=C/[C@@H](N)CS)C(C)C)Cc1ccccc1)C(=O)O` had an inhibition in vivo at 100 mg/kg in the test with Homo sapiens of 60%. Further, the IC50 in test [9] came out at 0.011 µM. Turning to `CCC(C)[C@@H](CO[C@@H](Cc1ccccc1)C(=O)N[C@@H](CCS(C)(=O)=O)C(=O)OC)NC[C@@H](N)CS` (some centres undefined), the results for the IC50 (in test [3]; with NIH3T3 [10]) were 0.24 µM and 10 µM, respectively.

In turn, `CCC(CC(C)C(=O)O)C(=O)CC/C1=C/C(C)C/C(C)=C/C(C)C(O)C(C)CCC(CCCC/C=C/C(C)CCC(C)OC(=O)CC(CC(=O)O)C(=O)O)OC(=O)CC(C(=O)O)CC(=O)OC1` (centres undefined) [ACTINOPLANIC ACID A] displayed an IC50 in [11] of 0.23 µM. For `O=C(N[C@H](Cc1cnc[nH]1)C(=O)N[C@@H](Cc1ccc(OCc2ccccc2)cc1)C(=O)NCCOCc1ccccc1)OCc1ccccc1`, the IC50 in test [2] came out at 0.02 µM.

In turn, `COC(=O)[C@H](CCSC)NC(=O)[C@H](/C=C\[C@@H](/C=C/[C@@H](N)CS)C(C)C)Cc1ccccc1` registered an IC50 in the test with Tumor Cell line of 60 µM.

In test [2], `CN1C(=O)[C@]23CC4=CC=C[C@H](O)[C@H]4N2C(=O)[C@@]1(CO)SS3` [GLIOTOXIN] yielded an IC50 of 1.1 µM. In test [12], this compound returned a Concentration of 6.3 mg/kg.

Take `CC(C)(C)[C@H](NC[C@@H](N)CS)C(=O)N1Cc2ccccc2C[C@H]1C(=O)N[C@@H](CCC(N)=O)C(=O)O`: the IC50 came out at 0.0028 µM in [13] and 1.4 µM in test [14]. The compound `CSCC[C@H](NC(=O)[C@H](Cc1ccccc1)NC[C@@H](NC[C@@H](N)CS)C(C)C)C(=O)O` returned a concentration for half-maximal inhibition (IC50) in test [15] of 50 µM. In test [11], `CCCCCCCC/C=C\CCCCCC/C(C(=O)O)=C(\C)C(=O)O` [CHAETOMELLIC ACID B] gave a half-maximal inhibitory concentration (IC50) of 0.19 µM.

Consider `CSCCC(NC(=O)CN1C(=O)[C@H](N(C)C(=O)[C@H](N)CS)NC(c2ccccc2)c2ccccc21)C(=O)O` (some centres undefined), for which, in test [13], inhibition was half-maximal at 0.00079 µM (IC50).

In [1], `COC(=O)[C@H](CCSC)NC(=O)[C@@H](NC(=O)[C@@H](NC(=O)CCP(=O)(O)C/C=C(\C)CC/C=C(\C)CCC=C(C)C)C(C)C)C(C)C` gave a Concentration of 0.1 µM. In turn, `COC(=O)C1=CC(CO)=COc2oc3cccc(O)c3c(=O)c21` [FUSIDIENOL] yielded a 50% inhibitory concentration (IC50) in test [3] of 1 µM.

In [16], `CCC(OCCCCNCCSS(=O)(=O)O)C1CCCCC1` (centres undefined) displayed a Concentration of 25 µM. In test [17], this compound showed a 50% inhibitory concentration (IC50) of 2 µM. Take `CC[C@@H](C)[C@H](NC[C@@H](NC[C@@H](N)CS)[C@H](C)CC)C(=O)N[C@H]1CCOC1=O`: the IC50 in test [3] is 0.28 µM; in [14], above 10 µM; with NIH3T3 [10], 50 µM. Consider `CC(C)=CCC/C(C)=C/CC/C(C)=C/C(=O)C(F)(F)P(=O)(O)O`, for which the IC50 in [18] stood at 0.35 µM.

Source of the values: ChEMBL document CHEMBL1130144, “Ras farnesyltransferase: a new therapeutic target” (J Med Chem, 1997).
